Data on eight compounds can be found in US20150232876A1, “Use of a Receptor Kinase Having LysM Motifs in Order to Improve the Response of Plants to Lipochitooligosaccharides” (INSTITUT NATIONAL DE LA RECHERCHE AGRONOMIQUE, priority 2012, published 2015).

The target in this assay is LYR3 (Medicago truncatula, UniProt G7KAT5). Kind of assay: Saturation and competitive binding on LYR3-YFP expressed in N. benthamiana leaf membrane fractions. Conditions: for Ki: LYR3-YFP in N. benthamiana leaf membranes, competition with 0.9 nM LCO-IV(35S, C16:2Δ2,9), read-out: Affinity (nM) for LYR3 (Ki); for affinity / competition for binding to LYR3 (in words): competition with radioactive LCO. The text has this: Genes LYR3, LYK9 and LYR6 were inserted into a binary vector, fused in C-terminal with a fluorescent protein (Yellow Fluorescent Protein: YFP) and introduced into Nicotiana benthamiana leaves using agroinfiltration by Agrobacterium tumefaciens. Meanwhile, NFP and LYK3 genes which encode putative receptors […] Nod factors were inserted into the same vectors and expressed in the same conditions.
3 days after agro-infiltration, leaves of N. benthamiana expressing the different constructs were harvested and ground in liquid nitrogen. Membrane fractions were prepared from the ground material, using the same protocol as that described above for the preparation of microsomal fractions, except that 0.6% (w/v) of polyvinyl-polypyrrolidone were added to extraction buffer. After centrifugation at 3000×g, the supernatant was collected and centrifuged at 45000×g. The resulting (membrane fraction) pellet was resuspended in binding buffer, and stored at −80° C. in the presence of 10% or 50% glycerol, until use.
Membrane proteins were separated by 10% polyacrylamide gel electrophoresis in SDS, and transferred onto nitrocellulose membrane, and detection of recombinant proteins made using anti-GFP antibody. Meanwhile, the properties of specific binding to LCOs were assessed by equilibrium binding, as described in Example 1, using 0.8 to 2.4 nM of LCO-IV (^35S, C16:2Δ2, 9) +/−2 μM of unlabeled LCO-IV (S, C16: 2Δ2, 9), and 25 micrograms to 80 micrograms of membrane protein, depending of the expression level of the protein labeled with YFP.
To further characterize the binding properties of the protein LYR3, saturation binding experiments using LCO-IV (^35S, C16:2Δ2, 9) and competitive binding experiments in the presence of different COs or LCOs were performed.

LYR3, sequence (G7KAT5 entry or part of it): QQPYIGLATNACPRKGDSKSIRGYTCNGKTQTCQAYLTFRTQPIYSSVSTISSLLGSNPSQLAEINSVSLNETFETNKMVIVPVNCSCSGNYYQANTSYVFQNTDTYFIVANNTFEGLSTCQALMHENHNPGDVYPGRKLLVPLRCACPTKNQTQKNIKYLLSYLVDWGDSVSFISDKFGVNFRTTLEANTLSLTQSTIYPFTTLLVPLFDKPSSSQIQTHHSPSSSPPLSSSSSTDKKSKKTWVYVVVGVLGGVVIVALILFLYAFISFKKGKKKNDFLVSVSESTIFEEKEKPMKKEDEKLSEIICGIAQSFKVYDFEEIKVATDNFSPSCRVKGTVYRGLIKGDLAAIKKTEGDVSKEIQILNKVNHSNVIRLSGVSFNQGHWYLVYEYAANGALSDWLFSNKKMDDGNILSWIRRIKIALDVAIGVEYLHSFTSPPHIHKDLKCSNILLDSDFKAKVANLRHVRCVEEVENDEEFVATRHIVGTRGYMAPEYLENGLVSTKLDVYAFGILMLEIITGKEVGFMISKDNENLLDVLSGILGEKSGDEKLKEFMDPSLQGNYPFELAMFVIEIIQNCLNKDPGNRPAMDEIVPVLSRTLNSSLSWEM

Usually Ki stands for the dissociation constant of the complex between target and ligand, obtained from inhibition or displacement. Regarding `CC(=O)N[C@H]1[C@H](O[C@H]2[C@H](O)[C@@H](NC(C)=O)[C@H](O[C@H]3[C@H](O)[C@@H](NC(C)=O)C(O)O[C@@H]3CO)O[C@@H]2CO)O[C@H](CO)[C@@H](O[C@@H]2O[C@H](CO)[C@@H](O[C@@H]3O[C@H](CO)[C@@H](O[C@@H]4O[C@H](CO)[C@@H](O)[C@H](O)[C@H]4NC(C)=O)[C@H](O)[C@H]3NC(C)=O)[C@H](O)[C@H]2NC(C)=O)[C@@H]1O` (stereo partly shown) [CO-VI], the Ki came out at 1200 nM. As to `CCCCCC/C=C\CCCCCCCC(=O)N[C@H]1[C@H](O[C@H]2[C@H](O)[C@@H](NC(C)=O)C(O)O[C@@H]2CO)O[C@H](CO)[C@@H](O)[C@@H]1O` (stereo partly shown) [LCO-II(C16:1Δ9)], the Ki was > 5000 nM and the “affinity / competition for binding to LYR3 (in words)” value (“affinity / competition for binding” for short) was “very low”. Regarding `CCCCCC/C=C\CCCCCCCC(=O)N[C@H]1[C@H](O[C@H]2[C@H](O)[C@@H](NC(C)=O)[C@H](O[C@H]3[C@H](O)[C@@H](NC(C)=O)C(O)O[C@@H]3CO)O[C@@H]2CO)O[C@H](CO)[C@@H](O)[C@@H]1O` (stereo partly shown) [LCO-III(C16:1Δ9)], the Ki stood at 79 nM. Consider `CCCCCC/C=C\CCCCC/C=C/C(=O)N[C@H]1[C@H](O[C@H]2[C@H](O)[C@@H](NC(C)=O)[C@H](O[C@H]3[C@H](O)[C@@H](NC(C)=O)[C@H](O[C@H]4[C@H](O)[C@@H](NC(C)=O)C(O)O[C@@H]4CO)O[C@@H]3CO)O[C@@H]2CO)O[C@H](CO)[C@@H](O)[C@@H]1O` (stereo partly shown) [LCO-IV(C16:2Δ2, 9)], for which the Ki came out at 30 nM. Same read-out and setting: the result for `CCCCCC/C=C\CCCCCCCC(=O)N[C@H]1[C@H](O[C@H]2[C@H](O)[C@@H](NC(C)=O)[C@H](O[C@H]3[C@H](O)[C@@H](NC(C)=O)[C@H](O[C@H]4[C@H](O)[C@@H](NC(C)=O)C(O)O[C@@H]4COS(=O)(=O)O)O[C@@H]3CO)O[C@@H]2CO)O[C@H](CO)[C@@H](O)[C@@H]1O` (stereo partly drawn) [LCO-IV(S, C16:1Δ9)] reads 21 nM.

For `CCCCCCCC/C=C\CCCCC/C=C/C(=O)N[C@H]1[C@H](O[C@H]2[C@H](O)[C@@H](NC(C)=O)[C@H](O[C@H]3[C@H](O)[C@@H](NC(C)=O)[C@H](O[C@H]4[C@H](O)[C@@H](NC(C)=O)C(O)O[C@@H]4COS(=O)(=O)O)O[C@@H]3CO)O[C@@H]2CO)O[C@H](CO)[C@@H](O)[C@@H]1O` (stereo partly drawn) [LCO-IV(S, C18:2Δ2, 9)], the Ki came out at 7 nM. As to `CCCCCC/C=C\CCCCCCCC(=O)N[C@H]1[C@H](O[C@H]2[C@H](O)[C@@H](NC(C)=O)[C@H](O[C@H]3[C@H](O)[C@@H](NC(C)=O)[C@H](O[C@H]4[C@H](O)[C@@H](NC(C)=O)[C@H](O[C@H]5[C@H](O)[C@@H](NC(C)=O)C(O)O[C@@H]5CO)O[C@@H]4CO)O[C@@H]3CO)O[C@@H]2CO)O[C@H](CO)[C@@H](O)[C@@H]1O` (stereo partly shown) [LCO-V(C16:1Δ9)], the Ki came out at 4.3 nM and the “affinity / competition for binding” value is listed as “slightly higher”. Take peptidoglycan: the “affinity / competition for binding” value is “no competition”.
